Laboratory results as given in the NIST ThermoML archive (doi:10.1016/j.fluid.2016.08.014).

Columns and labels:
[1] = refractive index (Na D-line) (dimensionless); conditions: 298.15 K; 101.33 kPa; Liquid; Standard Abbe refractometry
[2] = Liquid, Vibrating tube method

CC(=O)N(C)C [N,N-dimethylethanamide]
Conditions	refractive index
[1]	1.43615

[2]
Conditions	mass density [kg/m3]
293.15 K, 300 kPa	941
293.15 K, 2600 kPa	943
293.15 K, 5100 kPa	944
293.15 K, 10100 kPa	947
293.15 K, 14900 kPa	950
293.15 K, 20200 kPa	953
293.15 K, 25200 kPa	955
293.15 K, 30400 kPa	958
298.15 K, 101.33 kPa	936.729
303.2 K, 300 kPa	932
303.2 K, 2500 kPa	933
303.2 K, 5100 kPa	935
303.2 K, 10200 kPa	938
303.2 K, 15200 kPa	941
303.2 K, 20200 kPa	944
303.2 K, 24900 kPa	947
303.2 K, 30200 kPa	950
313.15 K, 100 kPa	922
313.15 K, 2500 kPa	924
313.15 K, 5200 kPa	926
313.15 K, 10000 kPa	929
313.15 K, 15200 kPa	932
313.15 K, 20100 kPa	935
313.15 K, 25200 kPa	938
313.15 K, 30200 kPa	941
323.15 K, 100 kPa	912
323.15 K, 2500 kPa	915
323.15 K, 5000 kPa	917
323.15 K, 10100 kPa	920
323.15 K, 15100 kPa	923
323.15 K, 20100 kPa	927
323.15 K, 25100 kPa	930
323.15 K, 30500 kPa	933
333.15 K, 100 kPa	903
333.15 K, 2500 kPa	906
333.15 K, 5100 kPa	907
333.15 K, 10100 kPa	911
333.15 K, 15100 kPa	915
333.15 K, 20200 kPa	918
333.15 K, 25000 kPa	921
333.15 K, 30100 kPa	924
343.15 K, 100 kPa	894
343.15 K, 2600 kPa	896
343.15 K, 5100 kPa	898
343.15 K, 10000 kPa	902
343.15 K, 15000 kPa	906
343.15 K, 20200 kPa	909
343.15 K, 25100 kPa	913
343.15 K, 30300 kPa	916
353.15 K, 100 kPa	885
353.15 K, 2500 kPa	887
353.15 K, 5200 kPa	889
353.15 K, 10000 kPa	893
353.15 K, 14900 kPa	897
353.15 K, 20200 kPa	901
353.15 K, 25200 kPa	905
353.15 K, 30100 kPa	908
363.15 K, 200 kPa	876
363.15 K, 2500 kPa	878
363.15 K, 5000 kPa	880
363.15 K, 10100 kPa	884
363.15 K, 15200 kPa	888
363.15 K, 20300 kPa	892
363.15 K, 25200 kPa	896
363.15 K, 30000 kPa	899
373.15 K, 100 kPa	866
373.15 K, 2600 kPa	868
373.15 K, 5100 kPa	871
373.15 K, 10000 kPa	875
373.15 K, 15100 kPa	880
373.15 K, 20300 kPa	884
373.15 K, 25100 kPa	888
373.15 K, 30600 kPa	892
383.15 K, 100 kPa	856
383.15 K, 2500 kPa	859
383.15 K, 5000 kPa	861
383.15 K, 10000 kPa	866
383.15 K, 15000 kPa	870
383.15 K, 20300 kPa	875
383.15 K, 25300 kPa	879
383.15 K, 30200 kPa	883
393.15 K, 15000 kPa	870
403.15 K, 100 kPa	837
403.15 K, 2500 kPa	840
403.15 K, 5100 kPa	843
403.15 K, 10200 kPa	848
403.15 K, 15000 kPa	853
403.15 K, 20700 kPa	858
403.15 K, 25200 kPa	862
403.15 K, 30900 kPa	867
413.15 K, 100 kPa	826
413.15 K, 2600 kPa	830
413.15 K, 5000 kPa	833
413.15 K, 10100 kPa	838
413.15 K, 15100 kPa	844
413.15 K, 20100 kPa	849
413.15 K, 25200 kPa	854
413.15 K, 30200 kPa	858
